Biological target: Aldo-keto reductase family 1 member B1 (Homo sapiens, UniProt P15121)
Test: Inhibition of recombinant human aldose reductase using dl-glyceraldehyde as substrate after 10 mins by spectrophotometry

Molecule `COC(=O)C(C)CC(=O)C[C@@H](C)[C@H]1CC(=O)[C@@]2(C)C3=C([C@@H](O)C[C@]12C)[C@@]1(C)CCC(=O)C(C)(C)[C@@H]1C[C@@H]3O` (some centres not stated) has an IC50 of over 189 µM.
For `COC(=O)[C@H](C)CC(=O)C[C@@H](C)[C@H]1C[C@H](O)[C@@]2(C)C3=C(C(=O)C[C@]12C)[C@@]1(C)CC[C@H](O)C(C)(C)[C@@H]1C[C@@H]3O`, the IC50 was over 184 µM.
`C/C(=C\C(=O)CC(C)C(=O)O)[C@H]1C[C@H](O)[C@@]2(C)C3=C(C(=O)C[C@]12C)[C@@]1(C)CCC(=O)C(C)(C)[C@@H]1C[C@@H]3O` (some centres not stated) [GANODERENIC ACID A] was tested, and the IC50 was 119 µM.
Molecule `C[C@H](CC(=O)C[C@@H](C)[C@H]1C[C@H](O)[C@@]2(C)C3=C(C(=O)C[C@]12C)[C@@]1(C)CCC(=O)C(C)(C)[C@@H]1C[C@@H]3O)C(=O)O` [GANODERIC ACID A] has an IC50 of over 193 µM.
In the case of `CC(CC(=O)C[C@@H](C)[C@H]1CC(=O)[C@@]2(C)C3=C(C(=O)C[C@]12C)[C@@]1(C)CC[C@H](O)C(C)(C)[C@@H]1C[C@@H]3O)C(=O)O` (some centres not stated) [GANODERIC ACID B], the IC50 is reported as over 193 µM.
`C[C@H](CC(=O)C[C@@H](C)[C@H]1CC(=O)[C@@]2(C)C3=C(C(=O)C[C@]12C)[C@@]1(C)CCC(=O)C(C)(C)[C@@H]1C[C@@H]3O)C(=O)O` [GANODERIC ACID C1] gave an IC50 of over 194 µM.
`C[C@H](CC(=O)C[C@@H](C)[C@H]1C[C@H](O)[C@@]2(C)C3=C(C(=O)C[C@]12C)[C@@]1(C)CC[C@H](O)C(C)(C)[C@@H]1C[C@@H]3O)C(=O)O` [GANODERIC ACID C2] showed an IC50 of 43.8 µM.
`CC(CC(=O)C[C@@H](C)[C@H]1CC(=O)[C@@]2(C)C3=C(C(=O)[C@@H](O)[C@]12C)[C@@]1(C)CC[C@H](O)C(C)(C)[C@@H]1CC3=O)C(=O)O` (some centres not stated) [GANODERIC ACID C6] gave an IC50 of over 193 µM.
With `CC(CC(=O)C[C@@H](C)[C@H]1CC(=O)[C@@]2(C)C3=C([C@@H](O)C[C@]12C)[C@@]1(C)CCC(=O)C(C)(C)[C@@H]1C[C@@H]3O)C(=O)O` (some centres not stated) [GANODERIC ACID DF] the IC50 was 22.8 µM.
`CC(CC(=O)C[C@@H](C)[C@H]1CC(=O)[C@@]2(C)C3=C(C(=O)C[C@]12C)[C@@]1(C)CCC(=O)C(C)(C)[C@@H]1C[C@@H]3O)C(=O)O` (some centres not stated) [GANODERIC ACID D] showed an IC50 of over 195 µM.
In the case of `CC(CC(=O)C[C@@H](C)[C@H]1CC(=O)[C@@]2(C)C3=C(C(=O)[C@@H](O)[C@]12C)[C@@]1(C)CC[C@H](O)C(C)(C)[C@@H]1C[C@@H]3O)C(=O)O` (some centres not stated) [GANODERIC ACID G], the IC50 is reported as over 188 µM.
With `CC(=O)O[C@@H]1C(=O)C2=C(C(=O)C[C@H]3C(C)(C)[C@@H](O)CC[C@]23C)[C@]2(C)C(=O)C[C@H]([C@H](C)CC(=O)CC(C)C(=O)O)[C@@]12C` (some centres not stated) [GANODERIC ACID H] the IC50 was over 175 µM.
Molecule `CC(CC(=O)C[C@@H](C)[C@H]1C[C@H](O)[C@@]2(C)C3=C(C(=O)C[C@]12C)[C@@]1(C)CCC(=O)C(C)(C)[C@@H]1CC3=O)C(=O)O` (some centres not stated) [GANODERIC ACID J] has an IC50 of over 194 µM.
With `CC(=O)O[C@@H]1C(=O)C2=C([C@@H](O)C[C@H]3C(C)(C)[C@@H](O)CC[C@]23C)[C@]2(C)C(=O)C[C@H]([C@H](C)CC(=O)CC(C)C(=O)O)[C@@]12C` (some centres not stated) [GANODERIC ACID K] the IC50 was over 174 µM.
Molecule `CC(CC(=O)C[C@@H](C)[C@H]1C[C@H](O)[C@@]2(C)C3=C(C(=O)C[C@]12C)[C@@]1(C)CC[C@H](O)C(C)(C)[C@@H]1CC3)C(=O)O` (some centres not stated) [GANOLUCIDIC ACID B] has an IC50 of over 199 µM.
`COC(=O)C(C)CC(=O)C[C@@H](C)[C@H]1C[C@H](O)[C@@]2(C)C3=C(C(=O)C[C@]12C)[C@@]1(C)CCC(=O)C(C)(C)[C@@H]1C[C@@H]3O` (some centres not stated) [METHYL GANODERATE A] was tested, and the IC50 was over 189 µM.
`COC(=O)C(C)CC(=O)/C=C(\C)[C@H]1C[C@H](O)[C@@]2(C)C3=C(C(=O)C[C@]12C)[C@@]1(C)CCC(=O)C(C)(C)[C@@H]1C[C@@H]3O` (some centres not stated) [METHYL GANODERENATE A] was tested, and the IC50 was over 184 µM.
